Ends that are not written are not given here.
Columns and labels:
[1] = test system: lymphocytes from two non-related individuals; experiment: Human two-way mixed leukocyte culture (MLC); format: cell-based; details: coupled to BSA; for average inhibition of human two-way MLC: 4 experiments, 6-day culture; for average inhibition of human two-way MLC (mean±SEM): four experiments, final 24 h of 6 day culture
Experimental: Fifty μl of RPMI containing 1×10^5 lymphocytes from each of two non-related individuals was added to each well of a 96 well tissue culture plate. An additional 50 μl of RPMI was added and cultures were incubated at 37° C. in humidified 5% CO2 for 5 days. Fifty μl of RPMI containing either peptide or no addition was added for an additional 24 hr. During the final 4 hr of incubation each well was incubated with 25 μl of RPMI containing 0.5 μCi of ^3 H-thymidine and incorporated radionucleotide determined as above.

[2] = test system: murine CTLL-2 cells; experiment: Murine cytotoxic T lymphocyte (CTLL-2) IL-2 dependent proliferation assay; format: cell-based; details: for average inhibition of CTLL-2 proliferation: CS-1 5 experiments, CS-3 4 experiments; for effect upon CTLL-2 cell proliferation: peptides coupled to BSA or control BSA, same conditions as the active peptide; for average inhibition of CTLL-2 cell proliferation: 24 experiments; for ^3H-TdR incorporation, CPM ± SD of quadruplicate samples: 24 h;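 for all read-outs here: CTLL-2 cells, 4 x 10^3 per well in 96-well plates with RPMI plus 6% FBS, proliferation read as cell-bound radioactivity counted by liquid scintillation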
Experimental: Fifty μ1 of RPMI (6% FBS, 0% IL-2) containing 4 x 10^3 CTLL-2 cells was added to each well of a 96 well tissue culture plate (Falcon, Oxnard, CA). To each well was then added 50 μl of RPMI 1640 containing 3% human IL-2 50 μl of either RPMI or RPMI containing synthetic peptides. Cultures were then incubated for 24 hours at 37° C. in humidified 5% CO^2 Fifty μl of RPMI containing 1 μCi of ^3 H-thymidine (6.7 Ci/mmole; New England Nuclear, Boston, MA) was added to each well for the final 4 hours of cultures. Cells were collected by filtration onto glass fiber filters and incorporated radioactivity determined by liquid scintillation spectrophotometry.

[3] = test system: human lymphocytes; experiment: Binding of [^125 I]-CKS-17-BSA to cultured human lymphocytes; details: >1000 fold excess of unlabeled BSA conjugate
Experimental: Human mononuclear cells were stimulated for 3 days with PHA, washed free of lectin, cultured for 10 days with 10% of a human IL-2 preparation (electronucleonics) washed and resuspended to 5×10^6 cells/ml in phosphate-buffered-saline, pH 7.2 (PBS) containing 0.1% BSA. […] Binding was terminated and unbounded [^125 I]-CKS-17-BSA removed by rapid (30 sec.) centrifugation of the cells through oil. The cell associated radioactivity was measured using a gamma radiation counter.

[4] = test system: OKT3-stimulated human lymphocytes; experiment: Human lymphocyte proliferative response to OKT3 antibody; format: cell-based; details: 5 experiments, 3 days, coupled to BSA
Experimental: (§1) One hundred μl of RPMI containing 2×10^5 lymphocytes was added to each well of a 96 well tissue culture plate. Fifty μl of RPMI containing either peptide or no addition was added for 2 hr at 37° C followed by the addition of 50 μl of RPMI containing nothing or Con A (40 μg/ml) or OKT3 antibody (1:1000 dilution). The cultures were incubated for 72 hr at 37° C. in 5% humidified CO2, pulsed with ^3 Hthymidine (0.,5 μCi/well, 4h.) and the incorporated radioactivity determined as described above. The concentration of OKT3 antibody used was previously determined to give 75-100% of a maximal response.

[5] = test system: human monocytes; experiment: Monocyte superoxide anion (O2^-) release; format: cell-based; details: WGA stimulated, peptide coupled to BSA, mean ± SE
Experimental: Monocytes were aliquoted into 12×75 mm polypropylene tubes (Falcon, Oxnard, CA) and incubated at 37° C. with test materials for twenty minutes. Cytochalasin E was then added to give a final concentration of 5 μg/ml. Ten minutes later 1.5 mg/ml cytochrome C was added followed immediately by wheat germ agglutinin (WGA) to a final concentration of 30 μg/ml (1). Supernatants were removed after 5 min. for determination of O2^- dismutase-inhibitable reduction of cytochrome C (2).

[6] = Immunization of rabbits; format: in vivo, rabbit
[7] = test system: Balb/c and NIH/Swiss splenic lymphocytes; experiment: Murine two-way mixed leukocyte culture (MLC); format: cell-based; details: coupled to BSA; for average inhibition of murine MLC response (mean±SEM): 3 day MLC, three experiments
Experimental: Fifty μl RPMI containing 1×10^5 Balb/c splenic lymphocytes and 50 μl containing 1×10^5 NIH/Swiss splenic lymphocytes were added to each well of a 96 well tissue culture plate. An additional 50 μl of RPMI containing peptide or no additives was added to each well and the cultures incubated for 3 to 5 days at 37° C in humidified 5% CO^2 Cultures were pulsed for 4 hr with 0.5 μCi of ^3 H-thymidine in 50 μl of RPMI before harvesting onto glass fiber filters.

[8] = test system: human lymphocytes stimulated with Con A; experiment: Human lymphocyte proliferative response to Con A; format: cell-based; details: addition 24 hr. after Con A; coupled to BSA
[9] = test system: Balb/3T3 fibroblasts; experiment: Fibroblast proliferation, Balb/3T3; format: cell-based; details: 2 or 3 days, dilutions 1:20, 1:40, 1:80
Experimental: (§2) CKS-17 was added at concentrations of 1:20, 1:40 and 1:80 to monolayers of Balb/3T3 or NIH/3T3 fibroblasts (ca. 1/3 confluent) in 96 well tissue culture plates. The cells were grown for an addition 2-3 days and pulsed with 1.0 μCi ^3 H-thymidine./well for the final 24 hours. The culture media was removed and the cells washed once before disruption with 0.5 ml of 0.5 N NaOH. The radiolabeled nucleic acids were then harvested onto glass fibe filters as described.

[10] = test system: human lymphocytes stimulated with Con A; experiment: Human lymphocyte proliferative response to Con A; format: cell-based; details: coupled to BSA
Experimental: as §1, with “Fifty μl of RPMI containing either peptide or no addition was added for 2 hr at 37° C followed by the addition of 50 μl of RPMI containing nothing or Con A (40 μg/ml) or OKT3 antibody (1:1000 dilution).” left out

[11] = test system: NIH/3T3 fibroblasts; experiment: Fibroblast proliferation, NIH/3T3; format: cell-based; details: 2 or 3 days, dilutions 1:20, 1:40, 1:80
Experimental: as §2

[12] = test system: T4^+ and T8^+ lymphocytes, B cells, NK cells and phagocytes; experiment: Preliminary double-labeling studies; format: binding
[13] = Expt. 1, dilution 1:40, coupled to BSA
[14] = Expt. 1, dilution 1:80, coupled to BSA
[15] = Expt. 2, dilution 1:40, coupled to BSA
[16] = Expt. 2, dilution 1:80, coupled to BSA

## AQNRRGLDLLFWEQGGL [CS-1]
[1]; 3.75 μM
  average inhibition of human two-way MLC: 51.8%
[1]; 7.5 μM
  average inhibition of human two-way MLC: 72.2%
[1]; 15 μM
  average inhibition of human two-way MLC: 81.8%
[2]; ca. 3.75 μM, coupled to BSA
  average inhibition of CTLL-2 proliferation: 13.4%
[2]; ca. 7.5 μM, coupled to BSA
  average inhibition of CTLL-2 proliferation: 39.8%
[2]; ca. 15 μM, coupled to BSA
  average inhibition of CTLL-2 proliferation: 92.8%
[3]
  inhibition of [^125 I]-CKS-17-BSA binding by excess unlabelled material: binding could be inhibited
[4]; ca. 3.75 μM
  average inhibition of OKT3-stimulated lymphocyte proliferation: 26.8%
[4]; ca. 7.5 μM
  average inhibition of OKT3-stimulated lymphocyte proliferation: 42.8%
[4]; ca. 15 μM
  average inhibition of OKT3-stimulated lymphocyte proliferation: 57.6%

## Glu-Val-Val-Leu-Glnpartial Asn-Arg-Arg-Gly-Leu-Asp-Leu-Leu (chain 1 EVVLQ; chain 2 NRRGLDLL; printed: Glu-Val-Val-Leu-Gln; printed: Asn-Arg-Arg-Gly-Leu-Asp-Leu-Leu) [SP-9]
[2]
  effect upon CTLL-2 cell proliferation: little or no effect
[5]; dilution 1:20
  O2^- Release: 10.6 ± 0.3 nmoles/5 minues/1.2 × 10^6 mon
[5]; dilution 1:40
  O2^- Release: 12.4 ± 0.5 nmoles/5 minues/1.2 × 10^6 mon

## LQARILAVERYLKDQQL [CS-3]
[1]; 3.75 μM
  average inhibition of human two-way MLC: 44.5%
[1]; 7.5 μM
  average inhibition of human two-way MLC: 74.0%
[1]; 15 μM
  average inhibition of human two-way MLC: 88.5%
[2]; ca. 3.75 μM, coupled to BSA
  average inhibition of CTLL-2 proliferation: 3.5%
[2]; ca. 7.5 μM, coupled to BSA
  average inhibition of CTLL-2 proliferation: 23.2%
[2]; ca. 15 μM, coupled to BSA
  average inhibition of CTLL-2 proliferation: 81.8%
[3]
  inhibition of [^125 I]-CKS-17-BSA binding by excess unlabelled material: binding could be inhibited
[4]; ca. 3.75 μM
  average inhibition of OKT3-stimulated lymphocyte proliferation: 23.2%
[4]; ca. 7.5 μM
  average inhibition of OKT3-stimulated lymphocyte proliferation: 33.4%
[4]; ca. 15 μM
  average inhibition of OKT3-stimulated lymphocyte proliferation: 40.4%

## LQNRRGLDLLFLKEGGL [CKS-17]
[1]; dilution 1:20
  average inhibition of human two-way MLC (mean±SEM): 92±2
[1]; dilution 1:40
  average inhibition of human two-way MLC (mean±SEM): 64±11
[1]; dilution 1:80
  average inhibition of human two-way MLC (mean±SEM): 18±3
[2]; dilution 1:20, coupled to BSA
  average inhibition of CTLL-2 cell proliferation: 49.6%
[2]; dilution 1:40, coupled to BSA
  average inhibition of CTLL-2 cell proliferation: 22.0%
[2]; dilution 1:80, coupled to BSA
  average inhibition of CTLL-2 cell proliferation: 9.4%
[2]; CTLL-2 cells, coupled to BSA
  short term toxic effect, trypan blue dye exclusion: not due to either a short term toxic effect
[2]; Expt. 1, dilution 1:20 (ca. 7.3 μM), coupled to BSA
  % inhibition of CTLL-2 proliferation: 76%
[2]; Expt. 1, dilution 1:20, coupled to BSA
  ^3H-TdR incorporation, CPM ± SD of quadruplicate samples: 15,255 ± 277 CPM
[2]; [13]
  % inhibition of CTLL-2 proliferation: 34%
  ^3H-TdR incorporation, CPM ± SD of quadruplicate samples: 42,827 ± 1386 CPM
[2]; [14]
  % inhibition of CTLL-2 proliferation: 7%
  ^3H-TdR incorporation, CPM ± SD of quadruplicate samples: 60,005 ± 1425 CPM
[2]; Expt. 2, dilution 1:20 (ca. 7.3 μM), coupled to BSA
  % inhibition of CTLL-2 proliferation: 64%
[2]; Expt. 2, dilution 1:20, coupled to BSA
  ^3H-TdR incorporation, CPM ± SD of quadruplicate samples: 10,950 ± 2171 CPM
[2]; [15]
  % inhibition of CTLL-2 proliferation: 24%
  ^3H-TdR incorporation, CPM ± SD of quadruplicate samples: 23,128 ± 3288 CPM
[2]; [16]
  % inhibition of CTLL-2 proliferation: 1%
  ^3H-TdR incorporation, CPM ± SD of quadruplicate samples: 29,980 ± 3490 CPM
[2]; ca. 15 μM, coupled to BSA
  incubation required for maximal inhibition of CTLL-2 cell proliferation: 16 h
[2]; coupled to BSA
  reversal of inhibition by increasing the concentration of IL-2 twenty-fold: could not be reversed
[2]; free (unconjugated) peptide
  effect upon the CTLL-2 cells: no effect
[5]; dilution 1:20
  O2^- Release: 6.0 ± 0.5 nmoles/5 minues/1.2 × 10^6 mon
[5]; dilution 1:40
  O2^- Release: 8.3 ± 0.5 nmoles/5 minues/1.2 × 10^6 mon
[3]
  inhibition of [^125 I]-CKS-17-BSA binding by excess unlabelled material: binding could be inhibited
[6]
  antibodies elicited by immunization of rabbits: elicited antibodies which react with free peptide and the native viral protein
[7]; dilution 1:20
  average inhibition of murine MLC response (mean±SEM): 94±2%
[7]; dilution 1:30
  average inhibition of murine MLC response (mean±SEM): 74±4%
[7]; dilution 1:80
  average inhibition of murine MLC response (mean±SEM): 48±9%
[7]; five-day MLC
  effect on five-day murine MLC reactions: blocked
[8]
  inhibition when peptide is added 24 hr. after the mitogen: comparable levels of inhibition
[9]
  effect upon ^3H-thymidine incorporation: no effect
[10]; Expt. 1, dilution 1:10
  % inhibition of Con A stimulated proliferation: 88%
  ^3H-TdR incorporation, CPM ± SD of quadruplicate samples: 11,170 ± 3572 CPM
[10]; Expt. 1, dilution 1:20
  % inhibition of Con A stimulated proliferation: 58%
  ^3H-TdR incorporation, CPM ± SD of quadruplicate samples: 38,132 ± 11,989 CPM
[10]; Expt. 1, dilution 1:40
  % inhibition of Con A stimulated proliferation: 58%
  ^3H-TdR incorporation, CPM ± SD of quadruplicate samples: 38,085 ± 10,678 CPM
[10]; Expt. 1, dilution 1:80
  % inhibition of Con A stimulated proliferation: 48%
  ^3H-TdR incorporation, CPM ± SD of quadruplicate samples: 46,815 ± 601 CPM
[10]; Expt. 2, dilution 1:10
  % inhibition of Con A stimulated proliferation: 66%
  ^3H-TdR incorporation, CPM ± SD of quadruplicate samples: 34,601 ± 3914 CPM
[10]; Expt. 2, dilution 1:20
  % inhibition of Con A stimulated proliferation: 38%
  ^3H-TdR incorporation, CPM ± SD of quadruplicate samples: 62,445 ± 3602 CPM
[10]; Expt. 2, dilution 1:40
  % inhibition of Con A stimulated proliferation: 17%
  ^3H-TdR incorporation, CPM ± SD of quadruplicate samples: 83,154 ± 4422 CPM
[10]; Expt. 2, dilution 1:80
  % inhibition of Con A stimulated proliferation: 5%
  ^3H-TdR incorporation, CPM ± SD of quadruplicate samples: 95,395 ± 45 CPM
[10]; text: 1:20 dilution (ca. 7.5μM)
  incorporation of ^3H-thymidine blocked: up to 88%
[11]
  effect upon ^3H-thymidine incorporation: no effect
[12]
  cell types bound: binds to T4^+ and T8^+ lymphocytes, B cells, NK cells and phagocytes

## PPFSLSPVPTL [SP-70]
[2]
  effect upon CTLL-2 cell proliferation: little or no effect
[5]; dilution 1:20
  O2^- Release: 10.7 ± 0.5 nmoles/5 minues/1.2 × 10^6 mon
[5]; dilution 1:40
  O2^- Release: 11.6 ± 0.2 nmoles/5 minues/1.2 × 10^6 mon

## PVMHPHGAPPNHRPWGMKNLQAIK [SP-16]
[2]
  effect upon CTLL-2 cell proliferation: little or no effect
[5]; dilution 1:20
  O2^- Release: 9.8 ± 0.2 nmoles/5 minues/1.2 × 10^6 mon
[5]; dilution 1:40
  O2^- Release: 12.4 ± 0.6 nmoles/5 minues/1.2 × 10^6 mon

## QYAAQNRRGLDLL [SP-74]
[2]
  effect upon CTLL-2 cell proliferation: little or no effect
[5]; dilution 1:20
  O2^- Release: 10.7 ± 0.4 nmoles/5 minues/1.2 × 10^6 mon
[5]; dilution 1:40
  O2^- Release: 12.5 ± 0.5 nmoles/5 minues/1.2 × 10^6 mon

From US4822606A, “Immunosuppressive synthetic peptides and analogs thereof based on retroviral envelope sequences” (Duke University, priority 1986, dated 1989)
